Laboratory results from patent publication US20220137027A1, “METHOD FOR EVALUATING MOLECULAR CHANGES RELATED TO A MOLECULE EFFECT IN A BIOLOGICAL SAMPLE” (IMABIOTECH, priority 2019, published 2022).

Assays:
Assay type in all cases: in vivo, BALB/c mice
[1] = Epacadostat quantification in plasma and blood; settings: BALB/c, mouse, 100 mg/kg oral
[2] = Epacadostat absolute quantification in CT26 tumor sections by QMSI (MALDI MSI)
Description: (§1) Colon carcinoma CT26 cell line was subcutaneously grafted into BALB/c mice (Charles River Laboratories, France). […] Tumors were sampled and snap frozen in liquid nitrogen for 15 s. The samples were kept at −80° C. until use. Ten micrometers thick tissue sections were obtained using a cryostat microtome (CM-3050S, Leica, Germany) with a microtome chamber and a specimen holder chilled at −23° C. Tissue sections were thaw mounted onto ITO-coated slides for downstream MALDI imaging and serial sections on SuperFrost slide for histological and immunohistochemistry (IHC) analysis. Biological replicates in duplicate (distant serial sections) were performed for analytical reproducibility. […] All animal experiments were compliant with the 2010/63/UE European Directive on Laboratory Animal Welfare and were approved by an Ethical Committee.
Then, low limit of detection (LOD), low limit of quantitation (LLOQ) and limit of linearity parameters were defined for the calibration curve that has been performed using at least 10 spotted concentrations on 10 μm thickness control tumor tissue sections. […] On the same ITO slide, calibration curve and tissue sections of interest (1 control and 3 treated in duplicates) were deposited and analyzed. Then, a uniform layer of filtrated 1,5-diaminonaphtalene (1,5-DAN) prepared at 10 mg/mL with 50/50 ACN/H2O matrix was deposited onto the tumor tissue sections using an HTX-TM sprayer device (HTX Technologies, LLC, Carrboro, N.C.). MALDI MSI analyses were performed using 7T MALDI-FTICR (SolariX XR, Bruker Daltonics, Bremen, Germany) with a SmartBeam II laser. […] Data acquisition was performed using the Flex software (FtmsControl 2.1.0) from Bruker Daltonics. Then, Multimaging software (ImaBiotech SAS) was used to obtain the calculated equation and to extract the different quantities in pmol/mm^2. A quantity conversion to μg/g of tissue was then obtained in created regions of interest (ROIs).
1.2 software (ImaBiotech SAS). This multimodal imaging platform combines quantitative mass spectrometry imaging (QMSI) and microscopy platform with statistical analysis for the understanding of the Omics information at cellular levels. MSI data were acquired from each tissue section as well as matrix control areas adjacent to the tissue sections to check for analyte dispersion/delocalization during sample preparation. Therefore, the ROIs related to EPA and/or Kyn presence were given by an image segmentation algorithm. […] Then, the algorithm smoothed the two ROIs to transform them into connected spaces. Finally, an exposure score was calculated using the Multimaging software using the formula: […]

[3] = Epacadostat quantification in CT26 tumor sections by LC-MS/MS; settings: BALB/c, mouse, CT26 tumor tissue sections, 100 mg/kg oral gavage
IDO1 = target: T1, IDO1 (Mus musculus, UniProt P28776); experiment: Regional exposure to response analysis in segmented ROIs of treated CT26 tumor (Kyn, Lactate, IDO1 immunostaining)
T1 construct: Colon carcinoma CT26 cell line was subcutaneously grafted into BALB/c mice; from tissue
Description: as §1
As Kyn was not detectable and Trp was slightly seen using classical method in CT26 tumor models, a derivatization strategy was necessary. The derivatization reaction amounts to adding the C11H16N+ (as X) unit to the neutral analyte. The agent was applied using an automatic sprayer (Suncollect, Sunchrom) and left during 30 min for incubation at room temperature. […] MSI data for kynurenine and tryptophan was recorded in positive ion mode (CASI, m/z range 350.0+/−150) at 120 μm of spatial resolution using an online calibration. […]
For MALDI MSI of other metabolites, a uniform layer of filtrated 1,5-diaminonaphtalene (1,5-DAN) prepared at 10 mg/mL with 50/50 ACN/H2O matrix was deposited onto the tumor tissue sections using an HTX-TM sprayer device (HTX Technologies, LLC, Carrboro, N.C.). […] MSI data for metabolites were recorded in full scan negative ion mode (m/z range 100-1000) at 120 μm of spatial resolution using an online calibration. […]
1.2 software (ImaBiotech SAS). This multimodal imaging platform combines quantitative mass spectrometry imaging (QMSI) and microscopy platform with statistical analysis for the understanding of the Omics information at cellular levels. […] Finally, an exposure score was calculated using the Multimaging software using the formula: […]

T1 sequence (P28776 whole entry): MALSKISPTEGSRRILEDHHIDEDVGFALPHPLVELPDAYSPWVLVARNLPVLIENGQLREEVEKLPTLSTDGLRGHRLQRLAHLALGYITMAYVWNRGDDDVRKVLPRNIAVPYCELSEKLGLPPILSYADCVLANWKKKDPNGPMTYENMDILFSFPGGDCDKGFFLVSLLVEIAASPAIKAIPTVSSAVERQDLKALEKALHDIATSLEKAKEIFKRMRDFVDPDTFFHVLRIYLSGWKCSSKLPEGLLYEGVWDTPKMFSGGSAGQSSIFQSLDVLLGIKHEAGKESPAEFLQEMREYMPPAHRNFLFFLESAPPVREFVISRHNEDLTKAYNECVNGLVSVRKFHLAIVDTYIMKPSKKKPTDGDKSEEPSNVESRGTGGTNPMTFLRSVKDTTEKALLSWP

NS(=O)(=O)NCCNc1nonc1C(=NO)Nc1ccc(F)c(Br)c1 [EPA, Epacadostat]
concentration at 2 h ([1]; plasma): 6600 ng/g
concentration at 2 h ([1]; whole blood): 7300 ng/g
Kp at 2 h ([2]; BALB/c, mouse, CT26 tumor relative to plasma, oral, 100 mg/kg, treated CT26 tumors, LC-MS/MS and QMSI): 3 to 4
concentration at 2 h ([2]; BALB/c, mouse, CT26 tumor section, ROI 1 (high EPA region), oral, 100 mg/kg, EPA quantity in ROI 1 (high EPA), QMSI, ROI 1 = 38% of tumor surface): 68000 ng/g
concentration at 2 h ([2]; BALB/c, mouse, CT26 tumor section, ROI 1, oral, 100 mg/kg, EPA quantity corresponding to the share in ROI 1, 61% of EPA signal): 26000 ng/g
concentration at 2 h ([2]; BALB/c, mouse, CT26 tumor section, ROI 2 (low EPA region), oral, 100 mg/kg, EPA quantity in ROI 2 (low EPA), QMSI, ROI 2 = 62% of tumor surface): 25000 ng/g
concentration at 2 h ([2]; BALB/c, mouse, CT26 tumor section, ROI 2, oral, 100 mg/kg, EPA quantity corresponding to the share in ROI 2, 39% of EPA signal): 15000 ng/g
concentration at 2 h ([2]; BALB/c, mouse, CT26 tumor section, ROI 3 (entire section), oral, 100 mg/kg, EPA quantity in ROI 3 (entire treated tumor section), QMSI): 42000 ng/g
concentration at 2 h ([2]; BALB/c, mouse, CT26 tumor tissue sections, po, 100 mg/kg, EPA quantity in treated CT26 tumor sections, three biological triplicates, QMSI, 100 mg/kg oral gavage, sacrificed 2 hours later): 38000 to 53000 ng/g
concentration at 2 h ([2]; BALB/c, mouse, CT26 tumor tissue sections, po, 100 mg/kg, average EPA quantity in CT26 tumor, QMSI, 100 mg/kg oral gavage, 2 hours): 46000 ng/g
concentration at 2 h ([2]; BALB/c, mouse, CT26 tumor tissue, oral, 100 mg/kg, available on tissue quantity of EPA in treated CT26 tumors, LC-MS/MS and QMSI): 35000 to 48000 ng/g
share of EPA signal concentrated in ROI 1 ([2]; ROI 1 = 38% of entire tissue section): ~61%
share of EPA signal in ROI 2 ([2]; ROI 2 = 62% left tumor region): 39%
concentration at 2 h [3]: 38500 ng/g
correlation between IDO1 expression level (semi-quantitative histology) and EPA levels (IDO1; IDO1 immunostaining on serial section): positive correlation
share of Kyn present in ROI 1 (high EPA) (IDO1; ROI 1 = 38% of the entire tumor): 15%
share of Kyn present in ROI 2 (low EPA) (IDO1; ROI 2): 85%
